From patent publication US12187701B2, “Taire family kinase inhibitors and uses thereof” (Dana-Farber Cancer Institute, Inc., priority 2018, dated 2025)
Read-outs that look alike come from different tables or passages of the source.

Legend:
CDK16/CycY = CDK16/CycY (Homo sapiens (Human), UniProt Q00536); assay: Lanthascreen Eu kinase binding assay for CDK16/CycY
Procedure: Lanthascreen Eu kinase binding assays were conducted for CDK16/CycY at Life Technologies.

CDK2/CycA = CDK2/CycA (Homo sapiens (Human), UniProt P24941); assay: Z'LYTE kinase assay for CDK2/CycA at Km ATP; format: biochemical
HCT116 cells = assay: Antiproliferation assay, Cell Titer Glo, 72 hours; format: cell-based
Procedure: HCT116 cells were plated in 384-well plates at 750 cells/well in 50 ul fresh media (McCoy's 5A+10% FBS+1% Penn/Strep) and treated with 0.1 μl candidate compounds in four-fold dilution series using the Janus pinner. Cells were incubated with compounds for 72 hours in 37° C. 5% CO2. Anti-proliferative effects of these compounds were assessed 72 hours after compound addition using Cell Titer Glo (Promega cat #G7571) as described in product manual by luminescence measurements using an Envision platereader. All proliferation assays were performed in biological quadruplicate. IC50 values were determined using a non-linear regression curve fit in GraphPad Prism 6.

Cdk14/CycY = Cdk14/CycY (Homo sapiens (Human), UniProt O94921); assay: Lanthascreen Eu kinase binding assay for Cdk14/CycY with 30 minute pre-incubation; settings: 30 minute pre-incubation of kinase with compound; read-out: IC50 CDK14 binding by Lanthascreen
Procedure: Lanthascreen Eu kinase binding assays were conducted for Cdk14/CycY largely as performed in the commercial assay service by Life Technologies, but included a 30 minute pre-incubation step of the kinase with candidate compounds to facilitate covalent bond formation.

[1] = read-out: IC50 CDK16 Lanthascreen binding
[2] = read-out: IC50 CDK2 Z′LYTE kinase assay

Sequence of CDK16/CycY (Q00536 whole entry): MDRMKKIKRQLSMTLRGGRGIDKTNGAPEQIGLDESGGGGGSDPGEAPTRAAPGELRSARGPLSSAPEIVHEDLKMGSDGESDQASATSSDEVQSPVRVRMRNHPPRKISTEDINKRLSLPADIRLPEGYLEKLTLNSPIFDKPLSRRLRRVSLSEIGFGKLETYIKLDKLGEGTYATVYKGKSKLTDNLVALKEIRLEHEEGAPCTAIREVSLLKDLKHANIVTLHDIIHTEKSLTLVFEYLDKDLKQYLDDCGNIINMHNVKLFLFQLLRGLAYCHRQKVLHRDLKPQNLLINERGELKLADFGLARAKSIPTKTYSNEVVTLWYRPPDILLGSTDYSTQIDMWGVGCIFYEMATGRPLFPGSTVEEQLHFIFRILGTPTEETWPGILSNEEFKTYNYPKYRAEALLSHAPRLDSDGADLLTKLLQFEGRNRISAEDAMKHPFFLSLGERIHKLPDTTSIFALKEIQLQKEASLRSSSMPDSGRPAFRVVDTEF
Sequence of CDK16/CycY (Q8ND76 whole entry partner): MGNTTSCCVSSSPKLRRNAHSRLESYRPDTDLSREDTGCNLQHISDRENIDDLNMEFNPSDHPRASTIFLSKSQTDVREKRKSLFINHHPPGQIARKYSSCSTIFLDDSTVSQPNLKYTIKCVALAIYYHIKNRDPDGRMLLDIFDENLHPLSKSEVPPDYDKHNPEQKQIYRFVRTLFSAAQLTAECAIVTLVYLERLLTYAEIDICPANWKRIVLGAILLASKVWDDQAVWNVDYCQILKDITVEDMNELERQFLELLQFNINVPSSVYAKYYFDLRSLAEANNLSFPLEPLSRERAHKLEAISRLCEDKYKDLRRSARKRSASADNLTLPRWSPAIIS
Sequence of Cdk14/CycY (O94921 whole entry): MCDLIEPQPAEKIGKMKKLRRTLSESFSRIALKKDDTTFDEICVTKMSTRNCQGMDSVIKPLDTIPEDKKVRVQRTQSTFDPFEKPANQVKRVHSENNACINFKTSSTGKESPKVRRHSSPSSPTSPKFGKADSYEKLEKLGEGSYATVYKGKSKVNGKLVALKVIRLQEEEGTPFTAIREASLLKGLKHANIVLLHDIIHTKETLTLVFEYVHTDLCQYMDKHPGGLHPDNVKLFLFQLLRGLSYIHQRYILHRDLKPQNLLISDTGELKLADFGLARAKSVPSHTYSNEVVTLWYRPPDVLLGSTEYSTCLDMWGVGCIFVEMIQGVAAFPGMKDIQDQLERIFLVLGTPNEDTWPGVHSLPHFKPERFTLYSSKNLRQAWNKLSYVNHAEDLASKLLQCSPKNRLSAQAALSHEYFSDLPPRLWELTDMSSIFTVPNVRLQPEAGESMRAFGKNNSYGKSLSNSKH
Sequence of Cdk14/CycY (Q8ND76 whole entry partner): as the sequence (Q8ND76 whole entry partner) above

## CN(C)C/C=C/C(=O)Nc1cccc(S(=O)(=O)N2CCC(NC(=O)c3n[nH]cc3NC(=O)c3c(Cl)cccc3Cl)CC2)c1 [FMF-03-198-2, (E)-4-(2,6-dichlorobenzamido)-N-(1-((3-(4-(dimethylamino)but-2-enamido)phenyl)sulfonyl)piperidin-4-yl)-1H-pyrazole-3-carboxamide]
CDK16/CycY; [1]
  IC50: 0.9 nM
CDK2/CycA; [2]
  IC50: 0.9 nM

## CN(C)C/C=C/C(=O)Nc1cccc(CN2CCC(NC(=O)c3n[nH]cc3NC(=O)c3c(Cl)cccc3Cl)CC2)c1 [FMF-03-200-2]
HCT116 cells
  IC50: 2.1 nM
HCT116 cells; Homo sapiens, HCT-116, 72 h
  IC50: 2.2 nM
CDK16/CycY; [1]
  IC50: 10.2 nM
CDK2/CycA; [2]
  IC50: 26 nM

## CCC(=O)Nc1cccc(S(=O)(=O)N2CCC(NC(=O)c3n[nH]cc3NC(=O)c3c(Cl)cccc3Cl)CC2)c1 [FMF-04-060-1, 4-(2,6-dichlorobenzamido)-N-(1-((3-propionamidophenyl)sulfonyl)piperidin-4-yl)-1H-pyrazole-3-carboxamide]
HCT116 cells; Homo sapiens, HCT-116, 72 h
  IC50: 76 nM
CDK16/CycY; [1]
  IC50: 2.3 nM
CDK2/CycA; [2]
  IC50: 3 nM

## COc1cccc(Cl)c1C(=O)Nc1c[nH]nc1C(=O)NC1CCN(S(=O)(=O)c2cccc(NC(=O)/C=C/CN(C)C)c2)CC1 [FMF-04-107-2, (E)-4-(2-chloro-6-methoxybenzamido)-N-(1-((3-(4-(dimethylamino)but-2-enamido)phenyl)sulfonyl)piperidin-4-yl)-1H-pyrazole-3-carboxamide]
HCT116 cells
  IC50: 524 nM
HCT116 cells; Homo sapiens, HCT-116, 72 h
  IC50: 524 nM
CDK16/CycY; read-out: CDK16 IC50
  IC50: 2.3 nM
CDK16/CycY; [1]
  IC50: 2.3 nM
CDK2/CycA; read-out: CDK2 IC50
  IC50: 4.5 nM
CDK2/CycA; [2]
  IC50: 4.5 nM

## CCC(=O)Nc1cccc(CN2CCC(NC(=O)c3n[nH]cc3NC(=O)c3c(Cl)cccc3Cl)CC2)c1 [FMF-04-172-2, 4-(2,6-dichlorobenzamido)-N-(1-(3-propionamidobenzyl)piperidin-4-yl)-1H-pyrazole-3-carboxamide]
HCT116 cells
  IC50: 173 nM
HCT116 cells; Homo sapiens, HCT-116, 72 h
  IC50: 123 nM
CDK16/CycY; [1]
  IC50: 29.4 nM
CDK2/CycA; [2]
  IC50: 19.6 nM

## COc1cccc(Cl)c1C(=O)Nc1c[nH]nc1C(=O)NC1CCN(Cc2cccc(NC(=O)/C=C/CN(C)C)c2)CC1 [FMF-05-032-1, (E)-4-(2-chloro-6-methoxybenzamido)-N-(1-(3-(4-(dimethylamino)but-2-enamido)benzyl)piperidin-4-yl)-1H-pyrazole-3-carboxamide]
HCT116 cells; Homo sapiens, HCT-116, 72 h
  IC50: 115 nM
CDK16/CycY; read-out: CDK16 IC50
  IC50: 8.2 nM
CDK16/CycY; [1]
  IC50: 8.2 nM
CDK2/CycA; read-out: CDK2 IC50
  IC50: 36 nM
CDK2/CycA; [2]
  IC50: 36 nM

## CCC(=O)Nc1cccc(S(=O)(=O)N2CCC(NC(=O)c3n[nH]cc3NC(=O)c3c(Cl)cccc3OC)CC2)c1 [FMF-05-033-1, 4-(2-chloro-6-methoxybenzamido)-N-(1-((3-propionamidophenyl)sulfonyl)piperidin-4-yl)-1H-pyrazole-3-carboxamide]
HCT116 cells; Homo sapiens, HCT-116, 72 h
  IC50: 172 nM
CDK16/CycY; [1]
  IC50: 3.4 nM
CDK2/CycA; [2]
  IC50: 3 nM

## C=CC(=O)Nc1ccc(CN2CC[C@H](NC(=O)c3n[nH]cc3NC(=O)c3c(Cl)cccc3Cl)C2)cc1 [FMF-05-070-1, (S)—N-(1-(4-acrylamidobenzyl)pyrrolidin-3-yl)-4-(2,6-dichlorobenzamido)-1H-pyrazole-3-carboxamide]
Cdk14/CycY
  IC50: 572 nM
HCT116 cells; Homo sapiens, HCT-116, 72 h
  IC50: 31 nM

## C=CC(=O)Nc1cccc(CN2CC[C@@H](NC(=O)c3n[nH]cc3NC(=O)c3c(Cl)cccc3Cl)C2)c1 [FMF-05-071-1, (R)—N-(1-(3-acrylamidobenzyl)pyrrolidin-3-yl)-4-(2,6-dichlorobenzamido)-1H-pyrazole-3-carboxamide]
Cdk14/CycY
  IC50: 282 nM
HCT116 cells; Homo sapiens, HCT-116, 72 h
  IC50: < 1 nM

## C=CC(=O)Nc1ccc(CN2CC[C@@H](NC(=O)c3n[nH]cc3NC(=O)c3c(Cl)cccc3Cl)C2)cc1 [FMF-05-072-1, (R)—N-(1-(4-acrylamidobenzyl)pyrrolidin-3-yl)-4-(2,6-dichlorobenzamido)-1H-pyrazole-3-carboxamide]
Cdk14/CycY
  IC50: 257 nM
HCT116 cells; Homo sapiens, HCT-116, 72 h
  IC50: < 1 nM

## C=CC(=O)Nc1ccc(N2CCC(NC(=O)c3n[nH]cc3NC(=O)c3c(Cl)cccc3Cl)CC2)cc1 [FMF-05-073-1, N-(1-(4-acrylamidophenyl)piperidin-4-yl)-4-(2,6-dichlorobenzamido)-1H-pyrazole-3-carboxamide]
Cdk14/CycY
  IC50: 154 nM
HCT116 cells; Homo sapiens, HCT-116, 72 h
  IC50: 30 nM

## C=CC(=O)Nc1ccc(N2CC[C@H](NC(=O)c3n[nH]cc3NC(=O)c3c(Cl)cccc3Cl)C2)cc1 [FMF-05-074-1, (S)—N-(1-(4-acrylamidophenyl)pyrrolidin-3-yl)-4-(2,6-dichlorobenzamido)-1H-pyrazole-3-carboxamide]
Cdk14/CycY
  IC50: 1200 nM
HCT116 cells; Homo sapiens, HCT-116, 72 h
  IC50: 2900 nM

## CN(C)C/C=C/C(=O)Nc1ccc(N2CC[C@H](NC(=O)c3n[nH]cc3NC(=O)c3c(Cl)cccc3Cl)C2)cc1 [FMF-05-074-2, (S,E)-4-(2,6-dichlorobenzamido)-N-(1-(4-(4-(dimethylamino)but-2-enamido)phenyl)pyrrolidin-3-yl)-1H-pyrazole-3-carboxamide]
Cdk14/CycY
  IC50: 116 nM
HCT116 cells; Homo sapiens, HCT-116, 72 h
  IC50: > 10000 nM

## C=CC(=O)Nc1ccc(N2CC[C@@H](NC(=O)c3n[nH]cc3NC(=O)c3c(Cl)cccc3Cl)C2)cc1 [FMF-05-075-1, (R)—N-(1-(4-acrylamidophenyl)pyrrolidin-3-yl)-4-(2,6-dichlorobenzamido)-1H-pyrazole-3-carboxamide]
Cdk14/CycY
  IC50: 267 nM
HCT116 cells; Homo sapiens, HCT-116, 72 h
  IC50: 64 nM

## CN(C)C/C=C/C(=O)Nc1ccc(N2CC[C@@H](NC(=O)c3n[nH]cc3NC(=O)c3c(Cl)cccc3Cl)C2)cc1 [FMF-05-075-2, (R,E)-4-(2,6-dichlorobenzamido)-N-(1-(4-(4-(dimethylamino)but-2-enamido)phenyl)pyrrolidin-3-yl)-1H-pyrazole-3-carboxamide]
Cdk14/CycY
  IC50: 738 nM
HCT116 cells; Homo sapiens, HCT-116, 72 h
  IC50: 714 nM

## CN(C)C/C=C/C(=O)Nc1ccc(S(=O)(=O)N2CC[C@H](NC(=O)c3n[nH]cc3NC(=O)c3c(Cl)cccc3Cl)C2)cc1 [FMF-05-084-2, (S,E)-4-(2,6-dichlorobenzamido)-N-(1-((4-(4-(dimethylamino)but-2-enamido)phenyl)sulfonyl)pyrrolidin-3-yl)-1H-pyrazole-3-carboxamide]
Cdk14/CycY
  IC50: 41 nM
HCT116 cells; Homo sapiens, HCT-116, 72 h
  IC50: > 10000 nM

## CN(C)C/C=C/C(=O)Nc1cccc(N2CC[C@H](NC(=O)c3n[nH]cc3NC(=O)c3c(Cl)cccc3Cl)C2)c1 [FMF-05-086-2, (S,E)-4-(2,6-dichlorobenzamido)-N-(1-(3-(4-(dimethylamino)but-2-enamido)phenyl)pyrrolidin-3-yl)-1H-pyrazole-3-carboxamide]
Cdk14/CycY
  IC50: 218 nM
HCT116 cells; Homo sapiens, HCT-116, 72 h
  IC50: > 10000 nM

## C=CC(=O)Nc1cccc(N2CC[C@@H](NC(=O)c3n[nH]cc3NC(=O)c3c(Cl)cccc3Cl)C2)c1 [FMF-05-087-1, (R)—N-(1-(3-acrylamidophenyl)pyrrolidin-3-yl)-4-(2,6-dichlorobenzamido)-1H-pyrazole-3-carboxamide]
Cdk14/CycY
  IC50: 1100 nM
HCT116 cells
  IC50: 22 nM

## CN(C)C/C=C/C(=O)Nc1cccc(N2CC[C@@H](NC(=O)c3n[nH]cc3NC(=O)c3c(Cl)cccc3Cl)C2)c1 [FMF-05-087-2, (R,E)-4-(2,6-dichlorobenzamido)-N-(1-(3-(4-(dimethylamino)but-2-enamido)phenyl)pyrrolidin-3-yl)-1H-pyrazole-3-carboxamide]
Cdk14/CycY
  IC50: 1300 nM
HCT116 cells; Homo sapiens, HCT-116, 72 h
  IC50: 123 nM

## CN(C)C/C=C/C(=O)Nc1cccc(S(=O)(=O)N2CCC(NC(=O)c3n[nH]cc3NC(=O)C3CCC(F)(F)CC3)CC2)c1 [FMF-05-116-1, (E)-4-(4,4-difluorocyclohexane-1-carboxamido)-N-(1-((3-(4-(dimethylamino)but-2-enamido)phenyl)sulfonyl)piperidin-4-yl)-1H-pyrazole-3-carboxamide]
HCT116 cells; Homo sapiens, HCT-116, 72 h
  IC50: 8200 nM
CDK16/CycY; [1]
  IC50: 140 nM
CDK2/CycA; [2]
  IC50: 51.5 nM
